pIC50: −log10 of the molar value. ≈ marks a conversion by molar mass, not a printed value.
Assays:
[1] = system: Bacillus subtilis; assay: Antibacterial activity against Bacillus subtilis; format: functional
[2] = system: Pseudomonas aeruginosa; assay: Antibacterial activity against Pseudomonas aeruginosa MTCC 741; format: functional
[3] = system: Candida albicans; assay: Antifungal activity against Candida albicans MTCC 183; format: functional
[4] = system: Staphylococcus aureus; assay: Antibacterial activity against Staphylococcus aureus MTCC 96; format: functional
[5] = system: Saccharomyces cerevisiae; assay: Antifungal activity against Saccharomyces cerevisiae; format: functional
[6] = system: Escherichia coli; assay: Antibacterial activity against Escherichia coli MTCC 739; format: functional
[7] = target: T1, Dihydrofolate reductase (Homo sapiens, UniProt P00374); assay: Inhibition of DHFR (unknown origin)
T1 sequence (P00374 whole entry): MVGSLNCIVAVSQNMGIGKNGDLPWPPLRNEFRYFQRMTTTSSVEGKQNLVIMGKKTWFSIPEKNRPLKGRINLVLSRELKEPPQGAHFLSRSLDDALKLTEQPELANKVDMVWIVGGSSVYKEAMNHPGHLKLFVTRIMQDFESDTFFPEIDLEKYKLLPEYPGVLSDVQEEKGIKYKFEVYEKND

[8] = system: SMMC-7721; assay: Cytotoxicity against human SMMC7721 cells by MTT assay; format: functional, cell-based
[9] = Cytotoxicity against human PC3 cells by MTT assay; format: functional, cell-based; conditions: PC-3
[10] = Cytotoxicity against human CNE2 cells by MTT assay; format: functional, cell-based; conditions: CNE-2
[11] = system: HUVEC; assay: Inhibition of cell adhesion in HUVEC at 30 uM after 3 hrs at 37 degC; format: functional; conditions: Homo sapiens
[12] = system: HUVEC; assay: Inhibition of cell adhesion in HUVEC at 15 uM after 3 hrs at 37 degC; format: functional; conditions: Homo sapiens
[13] = system: Mycobacterium tuberculosis; assay: Antimycobacterial activity against Mycobacterium tuberculosis H37Rv; format: functional
[14] = system: Klebsiella pneumoniae; assay: Antibacterial activity against Klebsiella pneumoniae MTCC 109 assessed as zone of inhibition; format: functional
[15] = system: Bacillus cereus; assay: Antibacterial activity against Bacillus cereus MTCC 430; format: functional
[16] = system: Pseudomonas aeruginosa; assay: Antibacterial activity against Pseudomonas aeruginosa MTCC 741 assessed as zone of inhibition; format: functional
[17] = system: Staphylococcus aureus; assay: Antibacterial activity against Staphylococcus aureus MTCC 96 assessed as zone of inhibition; format: functional
[18] = system: Bacillus cereus; assay: Antibacterial activity against Bacillus cereus MTCC 430 assessed as zone of inhibition; format: functional
[19] = system: Klebsiella pneumoniae; assay: Antibacterial activity against Klebsiella pneumoniae MTCC 109; format: functional
[20] = organism: Mus musculus; assay: Anticonvulsant activity in mouse assessed as protection against maximal electroshock-induced seizures; format: functional
[21] = Photocytotoxicity activity against human HL60 cells measured after UV irradiation; format: functional; conditions: HL-60, light or radiation study
[22] = target: T2, Pro-cathepsin H (Homo sapiens) (UniProt P09668); assay: Inhibition of Cathepsin H (unknown origin) at 0.25 x 10^-4 M
T2 sequence (whole entry): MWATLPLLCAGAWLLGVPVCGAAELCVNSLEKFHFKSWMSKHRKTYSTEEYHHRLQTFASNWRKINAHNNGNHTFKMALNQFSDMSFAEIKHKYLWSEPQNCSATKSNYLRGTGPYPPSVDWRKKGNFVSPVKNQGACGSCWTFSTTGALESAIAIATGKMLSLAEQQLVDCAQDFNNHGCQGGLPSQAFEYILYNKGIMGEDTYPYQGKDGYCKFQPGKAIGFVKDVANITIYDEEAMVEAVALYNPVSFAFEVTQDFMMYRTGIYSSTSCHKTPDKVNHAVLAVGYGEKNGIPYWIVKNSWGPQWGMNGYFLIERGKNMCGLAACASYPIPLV

[23] = Cytotoxicity against human PC3 cells assessed as inhibition of cell growth; format: functional, cell-based; conditions: PC-3
[24] = system: Staphylococcus aureus; assay: Antibacterial activity against methicillin-resistant Staphylococcus aureus; format: functional
[25] = target: Cathepsin B (Homo sapiens) (UniProt P07858); assay: Inhibition of Cathepsin B (unknown origin) at 0.50 x 10^-4 M
[26] = target: Epidermal growth factor receptor (Homo sapiens, UniProt P00533); assay: Inhibition of EGFR (unknown origin)
Chain of Epidermal growth factor receptor (P00533 whole entry): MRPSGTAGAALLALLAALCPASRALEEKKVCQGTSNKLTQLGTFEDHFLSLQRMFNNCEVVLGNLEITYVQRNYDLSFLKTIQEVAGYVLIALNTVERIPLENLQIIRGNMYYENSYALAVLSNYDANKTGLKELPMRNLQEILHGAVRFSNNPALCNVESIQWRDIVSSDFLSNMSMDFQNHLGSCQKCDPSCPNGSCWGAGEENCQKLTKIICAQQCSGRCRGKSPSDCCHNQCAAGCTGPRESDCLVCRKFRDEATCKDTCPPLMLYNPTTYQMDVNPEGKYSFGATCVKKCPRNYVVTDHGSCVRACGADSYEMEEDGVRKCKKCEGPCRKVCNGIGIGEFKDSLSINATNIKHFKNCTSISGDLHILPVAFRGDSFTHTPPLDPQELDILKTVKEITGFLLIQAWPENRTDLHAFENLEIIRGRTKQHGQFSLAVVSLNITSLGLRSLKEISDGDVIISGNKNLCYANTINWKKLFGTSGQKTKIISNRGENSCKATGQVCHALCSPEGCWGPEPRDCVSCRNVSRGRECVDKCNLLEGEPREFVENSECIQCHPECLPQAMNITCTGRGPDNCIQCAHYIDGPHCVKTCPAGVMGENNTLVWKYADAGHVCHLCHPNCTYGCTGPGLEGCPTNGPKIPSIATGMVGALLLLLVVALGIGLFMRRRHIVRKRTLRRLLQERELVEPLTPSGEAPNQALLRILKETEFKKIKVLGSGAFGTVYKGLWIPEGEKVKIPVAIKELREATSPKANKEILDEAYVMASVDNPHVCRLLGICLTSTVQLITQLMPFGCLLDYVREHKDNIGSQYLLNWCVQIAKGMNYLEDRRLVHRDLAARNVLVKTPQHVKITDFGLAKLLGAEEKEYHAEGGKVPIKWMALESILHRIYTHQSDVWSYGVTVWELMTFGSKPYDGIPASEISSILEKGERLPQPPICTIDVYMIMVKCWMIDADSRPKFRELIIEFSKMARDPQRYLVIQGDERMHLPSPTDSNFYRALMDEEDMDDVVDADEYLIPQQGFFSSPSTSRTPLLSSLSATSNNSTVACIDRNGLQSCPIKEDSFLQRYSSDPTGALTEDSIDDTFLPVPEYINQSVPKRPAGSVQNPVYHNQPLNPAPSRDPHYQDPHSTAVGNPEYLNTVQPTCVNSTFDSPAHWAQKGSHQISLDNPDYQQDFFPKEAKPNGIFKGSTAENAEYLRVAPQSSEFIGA

[27] = target: Cathepsin B (Homo sapiens) (UniProt P07858); assay: Inhibition of Cathepsin B (unknown origin) at 1 x 10^-4 M
[28] = target: Cathepsin B (Homo sapiens) (UniProt P07858); assay: Inhibition of Cathepsin B (unknown origin) at 0.1 x 10^-4 M
[29] = target: T2, Pro-cathepsin H (Homo sapiens); assay: Inhibition of Cathepsin H (unknown origin) at 1 x 10^-4 M
[30] = Antiproliferative activity against human colon cancer cells; format: functional, cell-based; conditions: Cancer cell lines
[31] = Antiproliferative activity against human lung cancer cells; format: functional, cell-based; conditions: Cancer cell lines
[32] = Antiproliferative activity against human breast cancer cells; format: functional, cell-based; conditions: Cancer cell lines
[33] = system: Escherichia coli; assay: Antibacterial activity against Escherichia coli assessed as zone of inhibition; format: functional
[34] = system: Staphylococcus aureus; assay: Antibacterial activity against Staphylococcus aureus assessed as zone of inhibition; format: functional

Work on `O=c1c2ccccc2nc(-c2ccc(Cl)cc2)n1Cc1ccccc1` yielded an MIC [1] of 24.3 µg/mL (≈ 70.1 µM), an MIC [2] of 30.1 µg/mL (≈ 86.8 µM) and an MIC [3] of 26.1 µg/mL (≈ 75.3 µM). For the same compound, the MIC [4] was 25.6 µg/mL (≈ 73.8 µM), the MIC [5] was 18.3 µg/mL (≈ 52.8 µM) and the MIC [6] was 25.1 µg/mL (≈ 72.4 µM).

In the case of `COc1ccc(/C=C2\CCCc3c2nc(N)nc3-c2ccc(OC)c(OC)c2)cc1OC`, the pIC50 [7] was 4.85.

With `Cn1c(=O)n(CCOC(=O)CNC(=O)c2ccco2)c(=O)c2ccccc21` the MIC [1] was 4 µg/mL (≈ 10.8 µM).

`CN(C)CCCNc1nc(-c2ccccc2NC(=O)CCN2CCN(C)CC2)nc2ccccc12` gave a pIC50 [8] of 4.96, a pIC50 [9] of 5.01 and a pIC50 [10] of 5.03. The inhibition at 30 µM [11] was 71.2% and the inhibition at 15 µM [12] was 65.8%.

For `Cc1cccc(Oc2nc(-c3ccc(NC(=S)Nc4ccc(Br)cc4)cc3)nc3ccccc23)c1`, the “inhibition (INH)” value [13] was 99% and the MIC ([13]; Mycobacterium tuberculosis, H37Rv) was 12.5 µg/mL (≈ 23.1 µM).

For `Cc1cccc(Oc2nc(-c3ccc(NC(=O)Nc4ccc(Br)cc4)cc3)nc3ccccc23)c1`, the MIC [2] was 25 µg/mL (≈ 47.6 µM), the “inhibition zone (IZ)” value [14] was 27 mm and the MIC [3] was 12.5 µg/mL (≈ 23.8 µM). For the same compound, the MIC [4] was 6.25 µg/mL (≈ 11.9 µM), the MIC [15] was 12.5 µg/mL (≈ 23.8 µM) and the “inhibition zone (IZ)” value [16] was 25 mm. For the same compound, the “inhibition zone (IZ)” value [17] was 29 mm, the “inhibition zone (IZ)” value [18] was 26 mm and the MIC [19] was 12.5 µg/mL (≈ 23.8 µM).

`COc1cc2nc(/C=C/c3ccccc3Cl)n(-c3ccccc3[N+](=O)[O-])c(=O)c2cc1OC` showed an ED50 [20] of 98.2 µmol/kg.

Compound `COc1cc(/C=C2\CCCc3c2nc(C)nc3-c2cc(OC)c(OC)c(OC)c2)cc(OC)c1OC` has a pIC50 [7] of 6.30.

Work on `COc1cc2nc(/C=C/c3ccccc3Cl)n(-c3ccc(Br)cc3)c(=O)c2cc1OC` yielded an ED50 [20] of 41.3 µmol/kg.

Work on `CC1(C)CC(=O)C2=C(C1)N=C1Sc3ccccc3N1C2c1ccccc1C(F)(F)F` (centres undefined) yielded a GI50 [21] of 900 nM.

In the case of `CN(C)c1ccc(/C=C2\CCCC3=C2NC(=S)NC3c2ccc(N(C)C)cc2)cc1` (centres undefined), the inhibition [22] was 100%.

For `COc1cc2nc(/C=C/c3ccccc3Cl)n(-c3ccc([N+](=O)[O-])cc3)c(=O)c2cc1OC`, the ED50 [20] was 41.3 µmol/kg.

For `C[Se](=O)O` [METHYLSELENINIC ACID], the pIC50 [23] was > 5.08.

With `CN[C@@H]1[C@H](O[C@H]2[C@H](O[C@H]3[C@H](O)[C@@H](O)[C@H](N=C(N)N)[C@@H](O)[C@@H]3N=C(N)N)O[C@@H](C)[C@]2(O)C=O)O[C@@H](CO)[C@H](O)[C@H]1O` [STREPTOMYCIN] the MIC [1] was 32 µg/mL (≈ 55 µM).

In the case of `Cn1c(=O)n(CCOC(=O)CNC(=O)/C=C/c2ccccc2)c(=O)c2ccccc21`, the MIC [1] was 4 µg/mL (≈ 9.82 µM) and the MIC [24] was 4 µg/mL (≈ 9.82 µM).

With `CC1(C)CC(=O)C2=C(C1)N=C1Sc3ccccc3N1C2c1ccc(F)cc1` (centres undefined) the GI50 [21] was 900 nM.

`S=C1NC2=C(CCC/C2=C\C=C\c2ccccc2)C(/C=C/c2ccccc2)N1` (centres undefined) gave an inhibition [25] of 100%.

In the case of `Clc1cc(Nc2ncnc3ccc(NC4=NC[C@H](COc5ccccc5)O4)cc23)ccc1OCc1nccs1`, the pIC50 [26] was 5.92.

In the case of `Cn1c(=O)n(CCOC(=O)CNC(=O)c2ccc([N+](=O)[O-])cc2)c(=O)c2ccccc21`, the MIC [24] was 4 µg/mL (≈ 9.38 µM).

`O=C1NC2=C(CCC/C2=C\C=C\c2ccccc2)C(/C=C/c2ccccc2)N1` (centres undefined) showed an inhibition [27] of 100% and an inhibition [28] of 50%.

`Clc1cc(Nc2ncnc3ccc(NC4=NC[C@@H](COc5ccccc5)O4)cc23)ccc1OCc1nccs1` gave a pIC50 [26] of 6.02.

For `CN(C)c1ccc(/C=C2\CCCC3=C2NC(=O)NC3c2ccc(N(C)C)cc2)cc1` (centres undefined), the inhibition [29] was 100%.

Work on `O=c1c2ccccc2ncn1/N=C/c1ccc(O)c(O)c1O` yielded a pIC50 [30] of 6.49, a pIC50 [31] of 7.10 and a pIC50 [32] of 6.85.

For `COc1cc(/C=C2\CCCc3c2nc(N)nc3-c2cc(OC)c(OC)c(OC)c2)cc(OC)c1OC`, the pIC50 [7] was 4.85.

With `COc1cc2nc(/C=C/c3ccccc3Cl)n(-c3ccncc3)c(=O)c2cc1OC` the ED50 [20] was 66.4 µmol/kg.

For `CC[C@@]1(O)C(=O)OCc2c1cc1n(c2=O)Cc2cc3c(CN(C)C)c(O)ccc3nc2-1` [TOPOTECAN], the pIC50 [23] was > 5.40.

`COc1ccc(C(=O)NCC(=O)OCCn2c(=O)c3ccccc3n(C)c2=O)cc1` gave an MIC [1] of 4 µg/mL (≈ 9.72 µM).

Compound `CC1(C)CC(=O)C2=C(C1)N=C1Sc3ccccc3N1C2c1ccc(C(F)(F)F)cc1` (centres undefined) has a GI50 [21] of 900 nM.

For `Oc1ccc(/C=N/NC2=NC3=C(CCCC3)C(c3ccccc3)N2)cc1` (centres undefined), the “inhibition zone (IZ)” value [33] was 17 mm and the “inhibition zone (IZ)” value [34] was 18 mm.

`COc1ccc(/C=C2\CCCc3c2nc(C)nc3-c2ccc(OC)c(OC)c2)cc1OC` showed a pIC50 [7] of 7.00.

With `Cn1c(=O)n(CCOC(=O)CNC(=O)c2ccc(F)cc2)c(=O)c2ccccc21` the MIC [24] was 4 µg/mL (≈ 10 µM).
